The OPERA property sets (Mansouri et al. 2018)
Values after ≈ are worked out from the molar mass of the structure shown.

| SMILES | solubility (25 °C) [mM] | solubility [mM] | further results |
| --- | --- | --- | --- |
| C[C@](N)(Cc1ccc(O)c(O)c1)C(=O)O | 47.3 (≈ 10000 µg/mL) | – | – |
| N=C(NCCCCCCNC(=N)NC(=N)Nc1ccc(Cl)cc1)NC(=N)Nc1ccc(Cl)cc1 | – | – | solubility (20 °C): 1.58 mM (≈ 800 µg/mL) |
| Cc1cc(O)c(C(C)C)cc1Cl | 5.42 (≈ 1000 µg/mL) | – | – |
| C=C1CCO[C@]2([C@H](O)[C@@](C)(O)CO)NC(=O)[C@@]1(O)NC2=O | – | 635 (≈ 192000 µg/mL) | – |
| CNC(=S)NCO | – | 832 (≈ 100000 µg/mL) | – |
| Cc1ccc(C(C)C)c(O)c1C(=O)O | – | – | solubility (20 °C): 0.515 mM (≈ 100 µg/mL) |
| CN1CCN(C(c2ccccc2)c2ccccc2)CC1 | < 3.75 | – | – |
| CCOc1ccc2nc3cc(N)ccc3c(N)c2c1 | – | 263 (≈ 66600 µg/mL) | – |
| O=C(O)/C=C\C(=O)Nc1ccccc1 | – | – | solubility (27 °C): 5.23 mM (≈ 1000 µg/mL) |
| CCC(O)(COC(N)=O)c1ccccc1 (stereo unspecified) | 119 (≈ 25000 µg/mL) | – | – |
| Nc1ccc(S(=O)(=O)O)c2ccc(S(=O)(=O)O)cc12 | – | 22.8 (≈ 6900 µg/mL) | – |
| C#CC1(OC(N)=O)CCCCC1 | 15 (≈ 2500 µg/mL) | – | – |
| O=C(OC[C@H]1O[C@@H](Oc2ccccc2CO)[C@H](O)[C@@H](O)[C@@H]1O)c1ccccc1 | – | 1.28 (≈ 500 µg/mL) | – |
| CC(N)c1ccccc1 (stereo unspecified) | – | – | solubility (20 °C): 347 mM (≈ 42000 µg/mL) |
| CC(=O)C1CCOC1=O (stereo unspecified) | – | 1560 (≈ 200000 µg/mL) | – |
| CCCOc1ccc([N+](=O)[O-])cc1N | – | – | solubility (20 °C): 0.693 mM (≈ 136 µg/mL) |
| COc1cc([C@@H]2c3cc4c(c(O)c3C[C@H]3COC(=O)[C@@H]32)OCO4)cc(OC)c1OC | – | – | solubility (23 °C): 0.0314 mM (≈ 13 µg/mL) |
| C=C(C)C(=O)C(=CC(=O)O)OC | 118 (≈ 20000 µg/mL) | – | – |
| CC[C@@]12CCCN3CC[C@]4(c5cccc(OC)c5N(C(C)=O)[C@@H]4CC1)[C@H]32 | – | 47.1 (≈ 16700 µg/mL) | – |
| COc1c2c(cc3oc(=O)ccc13)OC(C)(C)C=C2 | – | 0.155 (≈ 40 µg/mL) | – |
| Cc1cc(O)c(Cl)c(C)c1Cl | – | 1.05 (≈ 200 µg/mL) | – |

| SMILES | solubility (25 °C) [mM] | solubility [mM] | further results |
| --- | --- | --- | --- |
| O=C(c1ccccc1O)N1CCOCC1 | – | 19.8 (≈ 4100 µg/mL) | – |
| Nc1ccc(S(=O)(=O)O)c2cc(S(=O)(=O)O)ccc12 | – | 551 (≈ 167000 µg/mL) | – |
| O=C(OC(=O)c1ccccc1)c1ccccc1 | 0.0442 (≈ 10 µg/mL) | – | – |
| O=CNc1ccccc1 | 210 (≈ 25400 µg/mL) | – | – |
| CC(=O)N(O)CCCCCNC(=O)CCC(=O)N(O)CCCCCNC(=O)CCC(=O)N(O)CCCCCN | – | – | solubility (20 °C): 21.4 mM (≈ 12000 µg/mL) |
| CC(=O)OC(C)(C)C | 71.7 (≈ 8330 µg/mL) | – | – |
| NC(=S)Nc1cccc2ccccc12 | 2.97 (≈ 600 µg/mL) | – | – |
| OCc1cc(Br)ccc1O | 621 (≈ 126000 µg/mL) | – | – |
| Clc1ncnc2[nH]cnc12 | – | – | solubility (20 °C): 32.4 mM (≈ 5000 µg/mL) |
| O=C(C(Cl)Cl)N(CCO)Cc1ccc(Oc2ccc([N+](=O)[O-])cc2)cc1 | – | 0.00751 (≈ 3 µg/mL) | – |
| C[C@H](O)[C@@H](O)c1cnc2[nH]c(N)nc(=O)c2n1 | – | – | solubility (20 °C): 2.95 mM (≈ 700 µg/mL) |
| NC(=O)c1cccnc1 | 4090 (≈ 500000 µg/mL) | – | – |
| O=C1OC(CN2CCOCC2)CN1N=Cc1ccc([N+](=O)[O-])o1 (stereo unspecified) | 2.31 (≈ 750 µg/mL) | – | – |
| C[C@H]1O[C@H](O[C@H]2CC[C@H](n3ccc(NC(=O)c4ccc(NC(=O)[C@@](C)(N)CO)cc4)nc3=O)O[C@@H]2C)[C@H](O)[C@@H](O)[C@@H]1N(C)C | 3.23 (≈ 2000 µg/mL) | – | – |
| NC(=S)NC(N)=S | – | – | solubility (27 °C): 20 mM (≈ 2700 µg/mL) |
| NC(Cc1cc(Br)c(O)c(Br)c1)C(=O)O (stereo in doubt) | 11.8 (≈ 4000 µg/mL) | – | – |
| O=C(O)[C@H](O)[C@@H](O)[C@H](O)[C@H](O)CO | 1610 (≈ 316000 µg/mL) | – | – |
| CC1(C)[C@H]2CC[C@]1(C)C(=O)[C@H]2O | – | 119 (≈ 20000 µg/mL) | – |
| S=P(N1CC1)(N1CC1)N1CC1 | 1000 (≈ 190000 µg/mL) | – | – |
| OC(CI)CI | – | 40.1 (≈ 12500 µg/mL) | – |
| CC(O)(P(=O)(O)O)P(=O)(O)O | – | – | solubility (20 °C): 3350 mM (≈ 690000 µg/mL) |

| SMILES | solubility (25 °C) [mM] | solubility [mM] | further results |
| --- | --- | --- | --- |
| NS(=O)(=O)c1cc2c(cc1C(F)(F)F)NC=NS2(=O)=O | 152 (≈ 50000 µg/mL) | – | – |
| Nc1ccc(S(=O)(=O)c2cnc(N)s2)cc1 | – | – | solubility (28 °C): 1.57 mM (≈ 400 µg/mL) |
| CC(C)(C)OOC(C)(C)C | – | 0.684 (≈ 100 µg/mL) | – |
| CCC(C)C1(CC)C(=O)N=C([O-])NC1=O.[Na+] (stereo unspecified) | – | 1420 | – |
| O=P([O-])([O-])O[C@@H]1[C@@H](O)[C@H](O)[C@@H](O)[C@H](O)[C@@H]1O | – | 1280 | – |
| Cn1ccc(=O)c2ccccc21 | – | 104 (≈ 16600 µg/mL) | – |
| O=C1CCC(=O)N1Cl | 107 (≈ 14300 µg/mL) | – | – |
| Oc1c(Cl)cc(Cl)cc1Sc1cc(Cl)cc(Cl)c1O | 0.0112 (≈ 4 µg/mL) | – | – |
| C=C(C)Cn1c(N)cc(=O)n(C)c1=O | 102 (≈ 20000 µg/mL) | – | – |
| NC1(C(=O)O)CCCC1 | 387 (≈ 50000 µg/mL) | – | – |
| C/C=C\C(=O)OC1C[C@H]2O[C@@H]3C=C(C)C(=O)C[C@]3(C)[C@]1(C)C21CO1 (stereo partly specified) | 1.2 (≈ 400 µg/mL) | – | – |
| CCN(CC)C(=O)CC(C)C | – | 254 (≈ 40000 µg/mL) | – |
| O=C(C1CCCCC1)N1CC(=O)N2CCc3ccccc3C2C1 (stereo unspecified) | – | 1.28 (≈ 400 µg/mL) | – |
| O=C[C@H](O)C(O)[C@H](O)CO (stereo in doubt) | – | 3700 (≈ 555000 µg/mL) | – |
| COc1cc([C@@H]2c3cc4c(cc3[C@H](O)[C@H]3COC(=O)[C@@H]23)OCO4)cc(OC)c1OC | 0.241 (≈ 100 µg/mL) | – | – |
| CC(=O)OC[C@H]1O[C@@](COC(C)=O)(O[C@H]2O[C@H](COC(C)=O)[C@@H](OC(C)=O)[C@H](OC(C)=O)[C@H]2OC(C)=O)[C@@H](OC(C)=O)[C@@H]1OC(C)=O | – | 1.34 (≈ 910 µg/mL) | – |
| CN(CCO)c1nc2c(c(=O)n(C)c(=O)n2C)n1C | – | 224 (≈ 60000 µg/mL) | – |
| COCc1ccc([N+](=O)[O-])o1 | – | 70 (≈ 11000 µg/mL) | – |
| NC(=O)OCC(Cl)(Cl)Cl | – | 52 (≈ 10000 µg/mL) | – |
